Measurements reported in ChEMBL document CHEMBL3797052 (Eur J Med Chem, 2016).

Tested on: not listed separately
Assay: Antiproliferative activity against human SW620 cells assessed as growth inhibition after 48 hrs by sulforhodamine B assay
Format: functional
Settings: SW-620, 48 h

SMILES | GI50 | TGI
CNC(=O)c1cc(Oc2ccc3nc(NC(=O)Nc4ccc(Cl)c(Cl)c4)sc3c2)ccn1 | 8.11 µM | > 100 µM

Same assay, conditions: SW-620, 48 h, read-out: LC50 (the source's name)

SMILES | CC50
CNC(=O)c1cc(Oc2ccc3nc(NC(=O)Nc4ccc(Cl)c(Cl)c4)sc3c2)ccn1 | > 100 µM

Tested on: not listed separately
Assay: Antiproliferative activity against human SF268 cells assessed as cell growth at 10^-6 M after 48 hrs by sulforhodamine B assay
Format: functional
Settings: SF-268, 48 h, read-out: Activity

SMILES | growth at 1 µM
CNC(=O)c1cc(Oc2ccc3nc(NC(=O)Nc4ccc(Cl)c(Cl)c4)sc3c2)ccn1 | 95%

Tested on: KM12
Assay: Antiproliferative activity against human KM12 cells assessed as cell growth at 10^-4 M after 48 hrs by sulforhodamine B assay
Format: functional
Settings: KM12, 48 h, read-out: Activity

SMILES | growth at 100 µM
CNC(=O)c1cc(Oc2ccc3nc(NC(=O)Nc4ccc(Cl)c(Cl)c4)sc3c2)ccn1 | 6%

Tested on: not listed separately
Assay: Antiproliferative activity against human RPMI8226 cells assessed as cell growth at 10^-8 M after 48 hrs by sulforhodamine B assay
Format: functional
Settings: RPMI-8226, 48 h, read-out: Activity

SMILES | growth at 0.01 µM
CNC(=O)c1cc(Oc2ccc3nc(NC(=O)Nc4ccc(Cl)c(Cl)c4)sc3c2)ccn1 | 96%

Tested on: MCF7
Assay: Antiproliferative activity against human MCF7 cells assessed as growth inhibition after 48 hrs by sulforhodamine B assay
Format: functional
Settings: MCF7, 48 h

SMILES | GI50 | TGI
CNC(=O)c1cc(Oc2ccc3nc(NC(=O)Nc4ccc(Cl)c(Cl)c4)sc3c2)ccn1 | 2.65 µM | > 100 µM

Same assay, conditions: MCF7, 48 h, read-out: LC50 (the source's name)

SMILES | CC50
CNC(=O)c1cc(Oc2ccc3nc(NC(=O)Nc4ccc(Cl)c(Cl)c4)sc3c2)ccn1 | > 100 µM

Tested on: U-251
Assay: Antiproliferative activity against human U251 cells assessed as cell growth at 10^-7 M after 48 hrs by sulforhodamine B assay
Format: functional
Settings: U-251, 48 h, read-out: Activity

SMILES | growth at 0.1 µM
CNC(=O)c1cc(Oc2ccc3nc(NC(=O)Nc4ccc(Cl)c(Cl)c4)sc3c2)ccn1 | 99%

Tested on: NCI-H226
Assay: Antiproliferative activity against human NCI-H226 cells assessed as growth inhibition after 48 hrs by sulforhodamine B assay
Format: functional
Settings: NCI-H226, 48 h

SMILES | GI50 | TGI
CNC(=O)c1cc(Oc2ccc3nc(NC(=O)Nc4ccc(Cl)c(Cl)c4)sc3c2)ccn1 | 2.28 µM | 4.58 µM

Same assay, conditions: NCI-H226, 48 h, read-out: LC50 (the source's name)

SMILES | CC50
CNC(=O)c1cc(Oc2ccc3nc(NC(=O)Nc4ccc(Cl)c(Cl)c4)sc3c2)ccn1 | 9.21 µM

Tested on: not listed separately
Assay: Antiproliferative activity against human UACC257 cells assessed as cell growth at 10^-7 M after 48 hrs by sulforhodamine B assay
Format: functional
Settings: UACC-257, 48 h, read-out: Activity

SMILES | growth at 0.1 µM
CNC(=O)c1cc(Oc2ccc3nc(NC(=O)Nc4ccc(Cl)c(Cl)c4)sc3c2)ccn1 | 92%

Tested on: not listed separately
Assay: Antiproliferative activity against human DU145 cells assessed as growth inhibition after 48 hrs by sulforhodamine B assay
Format: functional
Settings: DU-145, 48 h

SMILES | GI50 | TGI
CNC(=O)c1cc(Oc2ccc3nc(NC(=O)Nc4ccc(Cl)c(Cl)c4)sc3c2)ccn1 | 2.45 µM | 6.29 µM

Same assay, conditions: DU-145, 48 h, read-out: LC50 (the source's name)

SMILES | CC50
CNC(=O)c1cc(Oc2ccc3nc(NC(=O)Nc4ccc(Cl)c(Cl)c4)sc3c2)ccn1 | > 100 µM

Tested on: not listed separately
Assay: Antiproliferative activity against human DU145 cells assessed as cell growth at 10^-7 M after 48 hrs by sulforhodamine B assay
Format: functional
Settings: DU-145, 48 h, read-out: Activity

SMILES | growth at 0.1 µM
CNC(=O)c1cc(Oc2ccc3nc(NC(=O)Nc4ccc(Cl)c(Cl)c4)sc3c2)ccn1 | 101%

Tested on: EKVX
Assay: Antiproliferative activity against human EKVX cells assessed as cell growth at 10^-7 M after 48 hrs by sulforhodamine B assay
Format: functional
Settings: read-out: Activity

SMILES | growth at 0.1 µM
CNC(=O)c1cc(Oc2ccc3nc(NC(=O)Nc4ccc(Cl)c(Cl)c4)sc3c2)ccn1 | 93%

Tested on: not listed separately
Assay: Antiproliferative activity against human OVCAR8 cells assessed as cell growth at 10^-8 M after 48 hrs by sulforhodamine B assay
Format: functional
Settings: OVCAR-8, 48 h, read-out: Activity

SMILES | growth at 0.01 µM
CNC(=O)c1cc(Oc2ccc3nc(NC(=O)Nc4ccc(Cl)c(Cl)c4)sc3c2)ccn1 | 103%

Tested on: T47D
Assay: Antiproliferative activity against human T47D cells assessed as cell growth at 10^-4 M after 48 hrs by sulforhodamine B assay
Format: functional
Settings: read-out: Activity

SMILES | growth at 100 µM
CNC(=O)c1cc(Oc2ccc3nc(NC(=O)Nc4ccc(Cl)c(Cl)c4)sc3c2)ccn1 | -21%

Tested on: not listed separately
Assay: Antiproliferative activity against human HCT15 cells assessed as cell growth at 10^-4 M after 48 hrs by sulforhodamine B assay
Format: functional
Settings: HCT-15, 48 h, read-out: Activity

SMILES | growth at 100 µM
CNC(=O)c1cc(Oc2ccc3nc(NC(=O)Nc4ccc(Cl)c(Cl)c4)sc3c2)ccn1 | 26%

Tested on: M14
Assay: Antiproliferative activity against human M14 cells assessed as cell growth at 10^-7 M after 48 hrs by sulforhodamine B assay
Format: functional
Settings: M14, 48 h, read-out: Activity

SMILES | growth at 0.1 µM
CNC(=O)c1cc(Oc2ccc3nc(NC(=O)Nc4ccc(Cl)c(Cl)c4)sc3c2)ccn1 | 96%

Tested on: CCRF-CEM
Assay: Antiproliferative activity against human CCRF-CEM cells assessed as cell growth at 10^-4 M after 48 hrs by sulforhodamine B assay
Format: functional
Settings: read-out: Activity

SMILES | growth at 100 µM
CNC(=O)c1cc(Oc2ccc3nc(NC(=O)Nc4ccc(Cl)c(Cl)c4)sc3c2)ccn1 | 79%

Tested on: not listed separately
Assay: Antiproliferative activity against human UACC257 cells assessed as cell growth at 10^-6 M after 48 hrs by sulforhodamine B assay
Format: functional
Settings: UACC-257, 48 h, read-out: Activity

SMILES | growth at 1 µM
CNC(=O)c1cc(Oc2ccc3nc(NC(=O)Nc4ccc(Cl)c(Cl)c4)sc3c2)ccn1 | 89%

Tested on: MCF7
Assay: Antiproliferative activity against human MCF7 cells assessed as cell growth at 10^-7 M after 48 hrs by sulforhodamine B assay
Format: functional
Settings: MCF7, 48 h, read-out: Activity

SMILES | growth at 0.1 µM
CNC(=O)c1cc(Oc2ccc3nc(NC(=O)Nc4ccc(Cl)c(Cl)c4)sc3c2)ccn1 | 89%

Biological target: CYP2C19 (Homo sapiens, UniProt P33261)
Sequence (P33261 whole entry): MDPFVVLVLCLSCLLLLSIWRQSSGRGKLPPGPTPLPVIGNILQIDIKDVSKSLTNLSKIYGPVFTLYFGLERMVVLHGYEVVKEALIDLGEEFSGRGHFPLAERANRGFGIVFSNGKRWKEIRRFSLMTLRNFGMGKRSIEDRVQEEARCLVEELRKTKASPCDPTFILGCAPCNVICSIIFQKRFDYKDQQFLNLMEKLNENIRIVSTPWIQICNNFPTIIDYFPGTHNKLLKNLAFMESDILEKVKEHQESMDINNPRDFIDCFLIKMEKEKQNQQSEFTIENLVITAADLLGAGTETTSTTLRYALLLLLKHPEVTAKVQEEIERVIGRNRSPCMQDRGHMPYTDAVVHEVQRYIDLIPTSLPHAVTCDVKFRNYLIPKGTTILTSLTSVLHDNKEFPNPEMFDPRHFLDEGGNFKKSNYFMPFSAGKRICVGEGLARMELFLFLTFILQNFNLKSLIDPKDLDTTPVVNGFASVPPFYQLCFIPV
Assay: Inhibition of recombinant human CYP2C19 assessed as remaining enzyme activity at 10 uM after 5 mins in presence of NADP by fluorescence plate reader analysis
Format: ADME
Settings: read-out: Activity

SMILES | activity at 5 min, 10 µM
CNC(=O)c1cc(Oc2ccc3nc(NC(=O)Nc4ccc(Cl)c(Cl)c4)sc3c2)ccn1 | 83.6%

Biological target: CYP3A4 (Homo sapiens, UniProt P08684)
Sequence (P08684 whole entry): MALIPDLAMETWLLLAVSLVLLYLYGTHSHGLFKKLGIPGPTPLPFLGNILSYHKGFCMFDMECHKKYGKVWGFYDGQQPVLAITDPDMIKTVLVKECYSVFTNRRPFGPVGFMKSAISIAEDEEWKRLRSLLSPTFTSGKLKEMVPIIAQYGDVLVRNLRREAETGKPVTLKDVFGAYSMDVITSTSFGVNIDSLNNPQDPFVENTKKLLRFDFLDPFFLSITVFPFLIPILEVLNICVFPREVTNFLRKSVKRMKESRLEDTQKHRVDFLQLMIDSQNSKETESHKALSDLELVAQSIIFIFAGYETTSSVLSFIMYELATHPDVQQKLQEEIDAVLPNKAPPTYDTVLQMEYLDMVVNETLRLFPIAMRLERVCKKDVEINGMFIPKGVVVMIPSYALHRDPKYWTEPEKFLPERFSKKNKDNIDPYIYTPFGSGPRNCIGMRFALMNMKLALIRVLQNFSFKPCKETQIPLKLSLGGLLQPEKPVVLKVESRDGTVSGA
Assay: Inhibition of recombinant human CYP3A4 assessed as remaining enzyme activity using CYP3A4 blue as substrate at 10 uM after 5 mins in presence of NADP by fluorescence plate reader analysis
Format: ADME
Settings: recombinant human CYP3A4, probe CYP3A4 blue, read-out: Activity

SMILES | activity at 5 min, 10 µM
CNC(=O)c1cc(Oc2ccc3nc(NC(=O)Nc4ccc(Cl)c(Cl)c4)sc3c2)ccn1 | 104%

Tested on: not listed separately
Assay: Antiproliferative activity against human SNB75 cells assessed as cell growth at 10^-8 M after 48 hrs by sulforhodamine B assay
Format: functional
Settings: SNB-75, 48 h, read-out: Activity

SMILES | growth at 0.01 µM
CNC(=O)c1cc(Oc2ccc3nc(NC(=O)Nc4ccc(Cl)c(Cl)c4)sc3c2)ccn1 | 76%

Tested on: not listed separately
Assay: Antiproliferative activity against human NCI-ADR-RES cells assessed as cell growth at 10^-7 M after 48 hrs by sulforhodamine B assay
Format: functional
Settings: read-out: Activity

SMILES | growth at 0.1 µM
CNC(=O)c1cc(Oc2ccc3nc(NC(=O)Nc4ccc(Cl)c(Cl)c4)sc3c2)ccn1 | 98%

Tested on: 786-0
Assay: Antiproliferative activity against human 786-0 cells assessed as cell growth at 10^-6 M after 48 hrs by sulforhodamine B assay
Format: functional
Settings: 786-0, 48 h, read-out: Activity

SMILES | growth at 1 µM
CNC(=O)c1cc(Oc2ccc3nc(NC(=O)Nc4ccc(Cl)c(Cl)c4)sc3c2)ccn1 | 100%

Tested on: not listed separately
Assay: Antiproliferative activity against human UO31 cells assessed as cell growth at 10^-8 M after 48 hrs by sulforhodamine B assay
Format: functional
Settings: UO-31, 48 h, read-out: Activity

SMILES | growth at 0.01 µM
CNC(=O)c1cc(Oc2ccc3nc(NC(=O)Nc4ccc(Cl)c(Cl)c4)sc3c2)ccn1 | 86%

Tested on: MDA-MB-435
Assay: Antiproliferative activity against human MDA-MB-435 cells assessed as cell growth at 10^-7 M after 48 hrs by sulforhodamine B assay
Format: functional
Settings: MDA-MB-435, 48 h, read-out: Activity

SMILES | growth at 0.1 µM
CNC(=O)c1cc(Oc2ccc3nc(NC(=O)Nc4ccc(Cl)c(Cl)c4)sc3c2)ccn1 | 95%

Tested on: not listed separately
Assay: Antiproliferative activity against human COLO205 cells assessed as cell growth at 10^-6 M after 48 hrs by sulforhodamine B assay
Format: functional
Settings: COLO 205, 48 h, read-out: Activity

SMILES | growth at 1 µM
CNC(=O)c1cc(Oc2ccc3nc(NC(=O)Nc4ccc(Cl)c(Cl)c4)sc3c2)ccn1 | 106%

Tested on: not listed separately
Assay: Antiproliferative activity against human MOLT4 cells assessed as cell growth at 10^-4 M after 48 hrs by sulforhodamine B assay
Format: functional
Settings: MOLT-4, 48 h, read-out: Activity

SMILES | growth at 100 µM
CNC(=O)c1cc(Oc2ccc3nc(NC(=O)Nc4ccc(Cl)c(Cl)c4)sc3c2)ccn1 | 78%

Tested on: not listed separately
Assay: Antiproliferative activity against human DU145 cells assessed as cell growth at 10^-8 M after 48 hrs by sulforhodamine B assay
Format: functional
Settings: DU-145, 48 h, read-out: Activity

SMILES | growth at 0.01 µM
CNC(=O)c1cc(Oc2ccc3nc(NC(=O)Nc4ccc(Cl)c(Cl)c4)sc3c2)ccn1 | 102%

Tested on: not listed separately
Assay: Antiproliferative activity against human NCI-ADR-RES cells assessed as cell growth at 10^-6 M after 48 hrs by sulforhodamine B assay
Format: functional
Settings: read-out: Activity

SMILES | growth at 1 µM
CNC(=O)c1cc(Oc2ccc3nc(NC(=O)Nc4ccc(Cl)c(Cl)c4)sc3c2)ccn1 | 103%

Tested on: not listed separately
Assay: Antiproliferative activity against human SNB75 cells assessed as growth inhibition after 48 hrs by sulforhodamine B assay
Format: functional
Settings: SNB-75, 48 h

SMILES | GI50 | TGI
CNC(=O)c1cc(Oc2ccc3nc(NC(=O)Nc4ccc(Cl)c(Cl)c4)sc3c2)ccn1 | 1.73 µM | 3.61 µM

Same assay, conditions: SNB-75, 48 h, read-out: LC50 (the source's name)

SMILES | CC50
CNC(=O)c1cc(Oc2ccc3nc(NC(=O)Nc4ccc(Cl)c(Cl)c4)sc3c2)ccn1 | 7.54 µM

Tested on: not listed separately
Assay: Antiproliferative activity against human UACC257 cells assessed as cell growth at 10^-4 M after 48 hrs by sulforhodamine B assay
Format: functional
Settings: UACC-257, 48 h, read-out: Activity

SMILES | growth at 100 µM
CNC(=O)c1cc(Oc2ccc3nc(NC(=O)Nc4ccc(Cl)c(Cl)c4)sc3c2)ccn1 | 7%

Tested on: MDA-MB-435
Assay: Antiproliferative activity against human MDA-MB-435 cells assessed as cell growth at 10^-6 M after 48 hrs by sulforhodamine B assay
Format: functional
Settings: MDA-MB-435, 48 h, read-out: Activity

SMILES | growth at 1 µM
CNC(=O)c1cc(Oc2ccc3nc(NC(=O)Nc4ccc(Cl)c(Cl)c4)sc3c2)ccn1 | 93%

Tested on: not listed separately
Assay: Antiproliferative activity against human LOXIMVI cells assessed as cell growth at 10^-6 M after 48 hrs by sulforhodamine B assay
Format: functional
Settings: LOX IMVI, read-out: Activity

SMILES | growth at 1 µM
CNC(=O)c1cc(Oc2ccc3nc(NC(=O)Nc4ccc(Cl)c(Cl)c4)sc3c2)ccn1 | 95%

Biological target: RAF proto-oncogene serine/threonine-protein kinase (Homo sapiens, UniProt P04049)
Sequence (P04049 whole entry): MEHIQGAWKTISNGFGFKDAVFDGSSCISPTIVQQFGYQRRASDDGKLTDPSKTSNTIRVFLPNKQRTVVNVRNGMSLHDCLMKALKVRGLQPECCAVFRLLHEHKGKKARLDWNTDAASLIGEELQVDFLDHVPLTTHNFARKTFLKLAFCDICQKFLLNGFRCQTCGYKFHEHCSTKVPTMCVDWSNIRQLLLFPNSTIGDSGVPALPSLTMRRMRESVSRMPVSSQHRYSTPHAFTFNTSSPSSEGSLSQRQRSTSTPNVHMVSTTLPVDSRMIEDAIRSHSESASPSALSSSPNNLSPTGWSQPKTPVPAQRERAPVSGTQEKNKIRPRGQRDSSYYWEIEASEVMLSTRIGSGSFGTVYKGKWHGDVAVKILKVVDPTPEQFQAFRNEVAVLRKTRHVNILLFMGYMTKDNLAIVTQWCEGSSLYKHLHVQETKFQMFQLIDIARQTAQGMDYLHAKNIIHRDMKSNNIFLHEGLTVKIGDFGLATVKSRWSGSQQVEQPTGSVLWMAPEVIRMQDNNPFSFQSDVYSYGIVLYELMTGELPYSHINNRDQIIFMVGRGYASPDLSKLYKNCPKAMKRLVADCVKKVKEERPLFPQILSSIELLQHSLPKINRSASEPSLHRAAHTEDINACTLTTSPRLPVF
Assay: Inhibition of human C-RAF measured after 40 mins by scintillation counting
Settings: not given

SMILES | IC50
CNC(=O)c1cc(Oc2ccc3nc(NC(=O)Nc4ccc(Cl)c(Cl)c4)sc3c2)ccn1 | 0.015 µM

Tested on: SR
Assay: Antiproliferative activity against human SR cells assessed as growth inhibition after 48 hrs by sulforhodamine B assay
Format: functional
Settings: not given

SMILES | GI50 | LC50 | TGI
CNC(=O)c1cc(Oc2ccc3nc(NC(=O)Nc4ccc(Cl)c(Cl)c4)sc3c2)ccn1 | 6.47 µM | > 100 µM | > 100 µM
